Active and inactive are the calls of the source.

One may read the inhibition as the share of the control response that was lost under treatment.

The target in one test is Proto-oncogene tyrosine-protein kinase Src (Homo sapiens) (UniProt P12931). In words: Percent inhibition against human recombinant p60 c-Src tyrosine kinase at 500 uM.
Sequence of Proto-oncogene tyrosine-protein kinase Src (Homo sapiens) (P12931 2-536 limits assumed): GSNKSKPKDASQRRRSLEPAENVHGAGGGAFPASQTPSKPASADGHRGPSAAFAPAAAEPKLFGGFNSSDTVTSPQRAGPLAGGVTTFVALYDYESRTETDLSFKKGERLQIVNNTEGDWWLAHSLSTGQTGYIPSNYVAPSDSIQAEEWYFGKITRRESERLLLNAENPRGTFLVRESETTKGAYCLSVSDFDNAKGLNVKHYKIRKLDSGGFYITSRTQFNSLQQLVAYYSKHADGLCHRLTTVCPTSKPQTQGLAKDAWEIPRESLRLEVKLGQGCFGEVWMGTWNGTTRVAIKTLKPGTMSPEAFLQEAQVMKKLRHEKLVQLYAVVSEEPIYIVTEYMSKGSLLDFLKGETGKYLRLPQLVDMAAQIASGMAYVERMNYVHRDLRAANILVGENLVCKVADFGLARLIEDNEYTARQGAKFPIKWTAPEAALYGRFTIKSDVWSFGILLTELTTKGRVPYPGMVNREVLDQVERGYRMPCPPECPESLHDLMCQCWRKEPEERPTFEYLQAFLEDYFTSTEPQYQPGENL
With `COC(=O)c1cc2cc(O)ccc2[nH]1`, the inhibition came to 40%.

Another test shares this target. The experiment in a line: Percent inhibition determined against human recombinant p60 c-Src tyrosine kinase at 100 uM.
Regarding `COc1ccccc1NC(=O)c1cc2cc(O)ccc2[nH]1`, the inhibition is 3%.

Take `COC(=O)Cc1ccc(NC(=O)c2cc3cc(O)ccc3[nH]2)cc1`: the inhibition worked out at 32%.

For the compound `O=C(NCc1ccc(O)cc1)c1cc2ccccc2[nH]1`, the inhibition worked out at 36%.

On to `O=C(NCc1cccc(O)c1)c1cc2cc(O)ccc2[nH]1`, for which the inhibition was 74%.

`O=C(Nc1ccccc1O)c1cc2cc(O)ccc2[nH]1`: the inhibition stood at 43%.

On to `O=C(NCc1cccc(F)c1)c1cc2cc(O)ccc2[nH]1`, for which the inhibition is 57%.

Consider `COc1ccccc1CNC(=O)c1cc2cc(O)ccc2[nH]1`, for which the inhibition was determined as 21%.

Regarding `C[C@H](NC(=O)c1cc2cc(O)ccc2[nH]1)c1cccc(O)c1`, the inhibition came to 13%.

With `O=C(NCc1ccc(O)cc1)c1cc2cc(O)ccc2[nH]1`, the inhibition amounted to 54%.

For the compound `O=C(NCc1ccccc1O)c1cc2cc(O)ccc2[nH]1`, the inhibition came out at 24%.

Turning to `O=C(Nc1cccc(F)c1)c1cc2cc(O)ccc2[nH]1`, the inhibition amounted to 21%.

On to `COc1ccc(CNC(=O)c2cc3cc(O)ccc3[nH]2)cc1`, for which the inhibition came to 18%.

For the compound `COC(=O)c1ccc(CNC(=O)c2cc3cc(O)ccc3[nH]2)cc1`, the inhibition amounted to 11%.

Consider `O=C(Nc1ccc(O)cc1)c1cc2cc(O)ccc2[nH]1`, for which the inhibition was determined as 45%.

For the compound `COc1cccc(NC(=O)c2cc3cc(O)ccc3[nH]2)c1`, the inhibition worked out at 21%.

Consider `C[C@@H](NC(=O)c1cc2cc(O)ccc2[nH]1)c1cccc(O)c1`, for which the inhibition was found to be 15%.

On to `O=C(O)Cc1ccc(NC(=O)c2cc3cc(O)ccc3[nH]2)cc1`, for which the inhibition was found to be 7%.

Consider `CCOC(=O)c1cc2cc(O)c(O)cc2[nH]1`, for which the inhibition was 28%.

For the compound `O=C(Nc1cccc(O)c1)c1cc2cc(O)ccc2[nH]1`, the inhibition was determined as 30%.

For the next test the target is unchanged. In words: Percent inhibition of human recombinant p60 c-Src tyrosine kinase at 100 uM (inactive).
With `O=C(O)c1ccc(CNC(=O)c2cc3cc(O)ccc3[nH]2)cc1`, the inhibition entry was “inactive”.

The values above are taken from ChEMBL document CHEMBL1133411, “The design, synthesis and activity of non-ATP competitive inhibitors of pp60(c-src) tyrosine kinase. Part 2: hydroxyindole derivatives” (Bioorg Med Chem Lett, 2000).
